Reference: US20260151406A1, “COMPOSITION FOR PREVENTING OR TREATING PERIODONTITIS COMPRISING CANNABIDIOL AND TAURINE” (MBP CO., LTD., priority 2022, published 2026)

Experiments:
Assay type in all cases: cell-based
[1] = test system: TRAP-positive cell formation in macrophages; experiment: Inhibition of TRAP-positive cell formation by RANKL during osteoclast differentiation; conditions: osteoclast differentiation (FIG. 3)
Method: (§1) To confirm the inhibitory effect of CBD and taurine on bone loss caused by periodontitis, the degree of TRAP formation and bone loss by RANKL (receptor activator of nuclear factor-KB ligand) was analyzed through pit formation area analysis.
As a result of analyzing the degree of inhibition of TRAP-positive cell formation by RANKL during osteoclast differentiation, it was confirmed that the inhibition efficacy of TRAP-positive cell formation was very low when CBD or taurine was used alone, but the inhibition efficacy of TRAP-positive cell formation was very high when CBD and taurine were used in combination (FIG. 3).

[2] = test system: bone loss by RANKL in macrophages; experiment: Inhibition of bone loss by RANKL in macrophages (pit formation area analysis); conditions: pit formation area (FIG. 4)
Method: as §1
To further confirm the bone loss inhibition efficacy of CBD and taurine, the degree of inhibition of bone loss by RANKL in macrophages was analyzed.

Raw264.7 cells = experiment: Evaluation of cytotoxicity (intracellular toxicity); conditions: CBD alone (FIG. 1)
Method: For CBD and taurine, intracellular toxicity evaluation was performed on osteoclasts (Raw264.7 cells), which are inflammatory cells, and the results are shown in FIG. 1. […] The appropriate concentrations of CBD (10 uM) and Taurine (0.5 mM) were determined, and intracellular toxicity evaluation according to subsequent combined treatment was performed.

SMILES | inhibition efficacy of TRAP-positive cell formation [1] | bone loss inhibition efficacy [2] | concentration up to which there was no intracellular toxicity (Raw264.7 cells) [µM]
NCCS(=O)(=O)O [taurine] | very low | almost none or very low | 
C=C(C)[C@@H]1CCC(C)=C[C@H]1c1c(O)cc(CCCCC)cc1O [CBD, Cannabidiol] | very low | almost none or very low | ≤ 12
